Source: patent publication US20260209218A1, “3-PHENYLQUINAZOLINONES AS NOVEL ANTI-CANCER THERAPY” (HELMHOLTZ ZENTRUM MÜNCHEN - DEUTSCHES FORSCHUNGSZENTRUM FÜR …, priority 2022, published 2026)
Blank lines part the entries; values can stand above or below the compound they belong to.

Key:
hFSP1 = molecular target: T1, hFSP1 (Homo sapiens, UniProt Q9BRQ8); assay: Dose-response of screening hits, cell survival by Aquabluer in hFSP1 GPX4 KO cells; assay type: cell-based; conditions: FSP1 overexpressing cells lacking GPX4
T1 construct: expressed in transfected cells; host or cells: Gpx4 KO isogenic fibroblasts (Pfa1, mouse) overexpressing hFSP1
T1 sequence (Q9BRQ8 1-373): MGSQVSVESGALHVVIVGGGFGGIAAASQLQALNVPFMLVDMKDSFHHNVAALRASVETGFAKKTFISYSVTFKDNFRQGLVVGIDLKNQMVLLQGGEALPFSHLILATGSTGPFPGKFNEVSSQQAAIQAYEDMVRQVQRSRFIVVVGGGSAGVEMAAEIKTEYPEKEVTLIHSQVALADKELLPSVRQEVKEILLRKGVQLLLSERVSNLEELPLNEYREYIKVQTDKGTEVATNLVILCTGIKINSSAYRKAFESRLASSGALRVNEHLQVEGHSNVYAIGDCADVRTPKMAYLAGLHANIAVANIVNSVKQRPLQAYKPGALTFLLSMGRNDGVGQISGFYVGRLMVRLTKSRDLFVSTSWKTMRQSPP
Protocol: To identify new small molecule inhibitors that induce ferroptosis in FSP1 overexpressing cells lacking GPX4, hFSP1 GPX4 KO as well as FSP1 GPX4 wild type (WT) isogenic fibroblasts were screened using a subtractive high throughput screening (HTS) approach. As such, both cell lines were plated in parallel and screened against HMGU libraries at a fixed concentration of 10 μM. Cell survival was evaluated using the LIVE/DEAD assay Aquabluer. The percentage (%) of viable cells was determined for both wild type (WT) and knockout (KO) cell lines. Hits were considered as compounds that induce ferroptosis in KO but not in WT cells. Subsequently, positive hits were assayed in a dose-response manner to establish EC50 values of respective compounds (see Table 2).

[1] = system: Pfa1 Gpx4^KO cells overexpressing FSP1; assay: Cell viability assay (AquaBluer), ferroptosis induction; assay type: cell-based; conditions: FIG. 1A; rescued by liproxstatin-1
Protocol: (§1) Cells were seeded on 96-well plates and cultured overnight. On the next day, the medium was changed to medium containing following compounds: RSL3, ML210, erastin, FIN56, FINO2, BSO, iFSP1, icFSP1, Lip-1, DFO, Fer-1, zVAD, Nec-1s, MCC950, olaparib, STS, TNFa, Smac mimic or nigericin at the indicated concentrations. For TAM and Dox treatment, cells were seeded with compounds at the same time. Cell viability was determined 1 h (for nigericin), 24-48 h (for RSL3, ML210, erastin, FIN56, FINO2, iFSP1, icFSP1, STS, TNFa, Smac mimic, and zVAD) or 72 h (for BSO, icFSP1, TAM, and Dox) after the treatment using AquaBluer (MultiTarget Pharmaceuticals, Cat #6015) as an indicator of viable cells according to the manufacturer's protocols. For apoptosis induction, HT-1080 cells were incubated with different concentrations of STS for 24 h. For necroptosis induction, HT-29 cells were incubated with different concentrations of TNFa with Smac mimic (400 nM), and zVAD (30 μM) for 24 h. […] As readout fluorescence was measured at Ex/Em=540/590 nm using a SpectraMax M5 microplate reader with SoftMax Pro v7 (Molecular devices) after 4 hours of incubation in normal cell culture conditions. The relative cell viability (%) was calculated as follows: (fluorescence (FL) of samples−background)/(FL of appropriate control samples−background)×100.

HT-1080 wild type cells = assay: as above; assay type: cell-based, human; conditions: FIG. 1B; rescued by liproxstatin-1
Protocol: as §1

[2] = Microsomal stability, mouse liver microsomes; assay type: in vitro ADME; conditions: Balb/c, pH 7.4, 0.42 mg microsomal protein per ml, 37° C., five time points over 40 minutes
Protocol: (§2) The objective of this study was to determine metabolic stability of 4 test articles and reference compounds in human and mouse liver microsomes at five time points over 40 minutes using HPLC-MS. Metabolic stability is defined as the percentage of parent compound lost over time in the presence of a metabolically active test system.
(§3) Microsomal incubations were carried out in 96-well plates in 5 aliquots of 30 μL each (one for each time point). Liver microsomal incubation medium comprised of phosphate buffer (100 mM, pH 7.4), MgCl2 (3.3 mM), NADPH (3 mM), glucose-6-phosphate (5.3 mM), glucose-6-phosphate dehydrogenase (0.67 units/ml) with 0.42 mg of liver microsomal protein per ml. In the control reactions, the NADPH-cofactor system was substituted with phosphate buffer. Test compounds (2 μM, final solvent concentration 1.6%) were incubated with microsomes at 37° C., shaking at 100 rpm. Five time points over 40 minutes were analyzed. The reactions were stopped by adding 5 volumes of acetonitrile with internal standard to incubation aliquots, followed by protein sedimentation by centrifuging at 5500 rpm for 5 minutes. Each reaction was performed in duplicates. Supernatants were analyzed using the HPLC system coupled with a tandem mass spectrometer.
(§4) The elimination constant (kel), half-life (t1,2), and intrinsic clearance (Clint) were determined in a plot of In(AUC) versus time, using linear regression analysis:^1

[3] = Microsomal stability, human liver microsomes; assay type: in vitro ADME; conditions: pH 7.4, 0.42 mg microsomal protein per ml, 37° C., five time points over 40 minutes
Protocol: as §2, §3, §4

[4] = Pharmacokinetics after a single intraperitoneal dose, plasma by LC-MS/MS; assay type: in vivo, male Balb/cAnN mice; conditions: mouse, IP, 10 mg/kg
Protocol: The purpose of this study was to determine the pharmacokinetic characteristics of compound 13 in male Balb/cAnN mice following intraperitoneal (IP) administration. Levels of the test compound were determined by LC-MS/MS in the blood plasma samples over time after a single dose.
Study design, animal selection, handling and treatment were all in accordance with the Enamine PK study protocols and Institutional Animal Care and Use Guidelines (BACUC approval number #HC-PK-10112023). Animal treatment and samples preparation were conducted by the Animal Laboratory personnel at Enamine/Bienta. Male Balb/cAnN mice (10 weeks old, body weight ranged from 19.6 g to 23.3 g and average body weight across all groups 21.0 g, SD=0.9 g) were used in this study. The animals were randomly assigned to the treatment groups before the pharmacokinetic study; all animals were fasted for 4 h before dosing. Six sampling time points (5, 15, 30, 60, 120, and 360 min) were set for this pharmacokinetic study. Each of the time point treatment group included 4 animals. There was also a control group of one vehicle-dosed animal. Dosing was done according to the treatment Schedules outlined in Table 5. Mice were injected IP with 2,2,2-tribromoethanol at the dose of 150 mg/kg prior to drawing the blood. Blood collection was performed from the orbital sinus in microtainers containing K3EDTA. Animals were sacrificed by cervical dislocation after the blood samples collection. Blood samples were centrifuged for 10 min at 3000 rpm. All samples were immediately processed, flash-frozen and stored at −70° C. until subsequent analysis.
Plasma samples (40 μl) were mixed with 200 μl of IS(90) solution. After mixing by pipetting and centrifuging for 4 min at 6000 rpm, 0.25 μl of each supernatant was injected into LC-MS/MS system.
Analyses of plasma samples were conducted by the Bioanalytical Laboratory personnel at Enamine/Bienta. The concentrations of 13 in samples were determined using high performance liquid chromatography/tandem mass spectrometry (HPLC-MS/MS). Shimadzu HPLC system comprised 2 isocratic pumps LC-10ADvp, an autosampler SIL-20AC, a sub-controller FCV-14AH and a degasser DGU-14A. Mass spectrometric analysis was performed using an API 3000 (triple-quadrupole) instrument from AB Sciex (Canada) with an electro-spray (ESI) interface. The data acquisition and system control were performed using Analyst 1.6.3 software from AB Sciex.
The concentrations of the test compound below the lower limit of quantitation (LLOQ=100 ng/ml) were designated as zero. The pharmacokinetic data analysis was performed using noncompartmental, bolus injection or extravascular input analysis models in WinNonlin 5.2 (PharSight). Data below LLOQ were presented as missing to improve the validity of T½ calculations.

[5] = system: ferroptosis-resistant tumor cells; conditions: background statement, references 16-18; cited from earlier work
[6] = system: Gpx4 KO/Fsp1KO double mutant murine melanoma cells (B16F10) reconstituted with human FSP1; assay: Syngeneic subcutaneous tumor model; assay type: in vivo, C57BL6/J mice
Protocol: All mice were obtained from Charles River. For the syngeneic subcutaneous tumor experiments, Gpx4^KO/Fsp1^KO 1B16F10 cells stably overexpressing hFSP1-HA (1×10^6 cells in 100 μL PBS) were injected subcutaneously into the right flank of 7-week-old female C57BL6/J mice. After tumors reached a size of approximately 25-50 mm^3, mice were randomized and treated with vehicle or icFSP1 (50 mg/kg, Intonation) by i.p. injections twice per day for 4-5 days. For generating tumor samples for staining, Gpx4^KO/Fsp1^KO 1B16F10 cells stably expressing hFSP1-WT-HA or hFSP1-Q319K-HA (1×10^6 cells in 100 μL PBS) were injected subcutaneously into the right flank of 7-week-old female C57BL6/J mice. After tumors reached a size of approximately 50-150 mm^3, mice were treated with vehicle or icFSP1 (50 mg/kg, Intonation) by i.p. injections twice per day for 3 days.
(§5) icFSP1 was dissolved in 45% PEG E 300 (Sigma, Cat #91462-1 KG) and 55% PBS (Gibco, Cat #14190094). Tumors were measured by caliper every day and tumor volume was calculated by the following formula: Tumor volume=length×width^2×0.52. When tumor sizes were either larger than 1000 mm^3 at measurement or tumors became necrotic, these tumors were considered to be human endpoints. When tumors became human endpoints, the experiment was stopped at that point and no further experiments were conducted.

[7] = system: GPX4 KO human melanoma cells (A375); assay: Xenograft subcutaneous tumor model, A375; assay type: in vivo, nude mice; conditions: FIG. 3B; treatment from day 3 post implantation, 50 mg/kg i.p.
Protocol: (§6) For the xenograft subcutaneous tumor experiments, GPX4^KO A375 cells (5×10^6 cells in 100 μL PBS) were injected subcutaneously into the right flank of 7-week-old female athymic nude mice. After tumors reached a size of approximately 25-100 mm^3, mice were randomized and treated with vehicle or icFSP1 (50 mg/kg, Intonation) by i.p. injections twice per day for the first 4 days and afterward once daily.
as §5

[8] = system: H460 GPX4 KO cells (a human lung cancer cell line); assay: Xenograft subcutaneous tumor model, H460; assay type: in vivo, Athymic Nude mice; conditions: FIG. 11C; 50 mg/kg i.p. twice per day from day 8
Protocol: as §6, with “H460” for “A375”, “flanks” for “flank”, “6-week-old” for “7-week-old”, “100” for “25-100”, “day.” for “day for the first 4 days and afterward once daily.”
as §5

[9] = system: WT hFSP1 or its mutants S187C, L217R and Q319K; assay: Saturation transfer difference (STD) NMR; assay type: binding; conditions: FIG. 9; 5 μM recombinant human FSP1, 100-fold molar excess of compound, 10° C.
Protocol: Saturation transfer difference (STD) experiments were performed at Bruker Avance III HD spectrometer at 600 MHz ^1H frequency using a H/N/C triple resonance cryogenic probe. Spectra were recorded at 10° C. with 5 μM recombinant human FSP1 (mutant) and 100-fold molar excess of icFSP1 in phosphate-buffer saline with additional 150 mM NaCl, 1% (v/v) DMSO-d6 and 10% (v/v) D2O for deuterium-lock. Saturation time was 2.5 sec and on- and off-frequencies were 0.68 and −17 ppm, respectively. NMR spectra were processed using Topspin 4.0.6 (Bruker).

SMILES: COc1cc(CC(=O)Nc2ccc(-n3c(C)nc4ccccc4c3=O)cc2)cc(OC)c1OC [Compound 1]
EC50 (hFSP1): < 1000 nM
ferroptosis induction (cell death, AquaBluer) [1]: efficiently induces ferroptosis
ferroptosis induction (cell death, AquaBluer) (HT-1080 wild type cells): efficiently induces ferroptosis

microsomal CLint at 2 μM [2]: 6 µL/min/mg
microsomal CLint at 2 μM [3]: 12 µL/min/mg
plasma concentration relative to the EC50 value ([4]; based on the total drug concentration): 10 fold
Cmax ([4]; male, Balb/cAnN, plasma): 10200 ng/mL
Tmax ([4]; male, Balb/cAnN, plasma): 0.25 h
AUC(0-t) ([4]; male, Balb/cAnN, plasma, read-out: AUC0→t = 60 min (AUClast) (converted)): 30000 ng·h/mL
AUC(0-inf) ([4]; male, Balb/cAnN, plasma, read-out: AUC0→∞ (AUCINF_obs) (converted)): 33500 ng·h/mL
MRT inf ([4]; male, Balb/cAnN, plasma, read-out: MRT (MRTinf) (converted)): 2.52 h
MRT last ([4]; male, Balb/cAnN, plasma, read-out: MRT (MRTlast) (converted)): 1.78 h
half-life ([4]; male, Balb/cAnN, plasma, read-out: T1/2 (HL_Lambda_z)): 1.9 h
Kel (Lambda_z) ([4]; plasma): 0.00608 min⁻¹
SMILES: Cc1nc2ccccc2c(=O)n1-c1ccc(NC(=O)Cc2ccccc2)cc1 [Compound 13, N-(4-(2-methyl-4-oxoquinazolin-3(4H)-yl)phenyl)-2-phenylacetamide]
EC50 (hFSP1): > 1000 nM

SMILES: Cc1ccc(-c2c(C#N)c(N)n3c(nc4ccccc43)c2C#N)cc1 [iFSP1, 1-amino-3-(4-methylphenyl)-pyrido[1,2-a]benzimidazole-2,4-dicarbonitrile]
sensitisation towards ferroptosis [5]: efficiently sensitizes ferroptosis-resistant tumor cells towards ferroptosis

binding by STD spectra [9]: show binding of icFSP1
SMILES: COc1cc(CC(=O)Nc2ccc(-n3c(C)nc4ccccc4c3=O)cc2)cc(OC)c1OC [icFSP1]
tumor growth (tumor volume, tumor weight) ([6]; FIG. 3A, treatment from day 6 post implantation, 50 mg/kg i.p. twice per day): inhibited tumor growth in both human and mouse tumors significantly
tumor growth, hFSP1 WT versus FSP1-Q319K expressing cells ([6]; FIG. 10E, 50 mg/kg i.p. twice per day from day 6): inhibits tumor growth of hFSP1 WT but not of FSP1-Q319K expressing cells
tumor growth [7]: inhibited tumor growth in both human and mouse tumors significantly
tumor growth [8]: inhibits tumor growth in vivo
